Source: EP4772161A1, “SKIN COSMETIC COMPOSITION CONTAINING BOTRYOCOCCENE AS ACTIVE INGREDIENT” (Phycochemy Corporation, priority 2023, dated 2025)

Tests used:
Type in all cases: cell-based, human
[1] = system: NHEK cells; experiment: Cytotoxicity with botryococcene treatment (Neutral Red uptake); settings: 24 hours
Protocol: (§1) Normal human epidermal keratinocytes (NHEKs) were cultured in HuMedia-KG2 (KG2) medium containing 10% fetal bovine serum, 1% antibiotic and 1% human epidermal keratinocyte growth supplement, in a 37°C, 5% CO2 incubator.
NHEK cells were seeded on a 96-well plate at a density of 2.5 × 10^4 cells/well in KG2 medium, and incubated for 24 hours. The supernatant was aspirated, the medium was exchanged with HuMedia-KB2 (KB2) medium containing 0, 12.5, 25, 50, 100, 200 and 400 µM botryococcene, and the mixture was incubated for 24 hours. After culturing, the cells were washed with PBS, the medium was exchanged with KB2 medium containing 0.003% Neutral Red, and culturing was carried out for 2 hours. The Neutral Red in the cells was extracted with 1 M HCl in 30% MeOH. The absorbance at 550 nm was measured with a microplate reader.

[2] = system: intracellular ROS; experiment: Intracellular reactive oxygen species removal (DCFH-DA fluorescence per unit protein); settings: NHEK cells, botryococcene 25-200 µM for 24 hours
Protocol: as §1
NHEK cells were seeded on a 96-well plate at a density of 2.5 × 10^4 cells/well in KG2 medium, and incubated for 24 hours. The supernatant was removed, the medium was exchanged with KB2 medium containing 0, 25, 50, 100 and 200 µM botryococcene, and incubation was carried out for 24 hours. After culturing, the cells were washed with PBS, the medium was exchanged with HBSS buffer containing 200 µM H2O2, and culturing was continued for 1 hour. The supernatant was removed and culturing was carried out for 30 minutes in HBSS buffer containing 20 µM DCFH-DA. The fluorescence intensity was measured with a microplate reader ([…]). The cells were then dissolved in 50 µL of PBS containing 0.5% Triton^R X-100, the protein level was quantified, and the fluorescence intensity per unit protein was normalized.

[3] = system: NHEK cells; experiment: Protection against cytotoxicity induced by H2O2 (Neutral Red uptake); settings: botryococcene 25-200 µM for 24 hours, then 300 µM H2O2 for 1 hour
Protocol: as §1
NHEK cells were seeded on a 96-well plate at a density of 2.5 × 10^4 cells/well in KG2 medium, and incubated for 24 hours. The supernatant was aspirated, the medium was exchanged with KB2 medium containing 0, 25, 50, 100 and 200 µM botryococcene, and incubation was carried out for 24 hours. After culturing, the cells were washed for 1 hour with HBSS containing PBS and 300 µM H2O2, and the cells were then incubated for 24 hours in KB2 medium. After incubation, the cells were washed with PBS, the medium was exchanged with KB2 medium containing 0.003% Neutral Red, and culturing was carried out for 2 hours. After culturing, the cells were washed with PBS. The Neutral Red in the cells was extracted with 1 M HCl in 30% MeOH. The absorbance at 550 nm was measured with a microplate reader.

[4] = system: IL-1α; experiment: IL-1α production in culture supernatant of NHEK cells, with or without UVB irradiation (ELISA, per unit protein)
Protocol: as §1
(§2) NHEK cells were seeded on a 96-well plate at a density of 2.5 × 10^4 cells/well in KG2 medium, and incubated for 24 hours. The supernatant was aspirated, the medium was exchanged with KB2 medium containing 0, 25, 50, 100 and 200 µM botryococcene, and culturing was continued for 24 hours, after which the cells were washed with PBS and the medium was exchanged with HBSS. The cells were then irradiated with UVB (280 to 320 nm, 20 mJ/cm^2) and cultured for 24 hours in fresh KB2 medium. The IL-1α and PGE2 expression levels in the culture supernatants were measured using an ELISA measuring kit. The cells were then dissolved in 50 µL of PBS containing 0.5% Triton^R X-100, the protein level was quantified, and the IL-1α and PGE2 production levels per unit protein were calculated.

[5] = system: PGE2; experiment: PGE2 production in culture supernatant of NHEK cells, with or without UVB irradiation (ELISA, per unit protein)
Protocol: as §1, §2

[6] = system: NHEK cells; experiment: Fluorescent bead (FluoSpheres) phagocytosis induced by UVB irradiation; settings: UVB 20 mJ/cm^2
Protocol: as §1
NHEK cells were seeded on a 96-well plate at a density of 2.5 × 10^4 cells/well in KG2 medium, and incubated for 24 hours. The supernatant was aspirated, the medium was exchanged with KB2 medium containing 0, 25, 50, 100 and 200 µM botryococcene, and culturing was continued for 24 hours, after which the cells were washed with PBS and the medium was replaced with HBSS. The cells were then irradiated with UVB (280 to 320 nm, 20 mJ/cm^2) and cultured for 24 hours in fresh KB2 medium. After replacing the medium with of KB2 medium containing FluoSpheres™ and allowing the cells to stand for 4 hours, they were dissolved with 50 µL of PBS containing 0.5% Triton^R X-100 and the fluorescence of the cell lysate was measured with a microplate reader. The fluorescence of the cell lysate was detected with a fluorescence reader at an excitation/luminous wavelength of 535 nm/590 nm. The cells were then dissolved in 50 µL of PBS containing 0.5% Triton^R X-100, the protein level was quantified, and the fluorescence intensity per unit protein was normalized.

[7] = system: type I collagen; experiment: Type I collagen production by NHDF cells treated with supernatant (K-CM) of UVB-irradiated NHEK cells (ELISA, per unit protein)
Protocol: as §1
(§3) Normal human skin fibroblasts (NHDFs) were cultured in DMEM with addition of 10% fetal bovine serum, 1% antibiotic and 1% human epidermal keratinocyte growth supplement, in a 37°C, 5% CO2 incubator.
(§4) NHEK cells were seeded on a 96-well plate at a density of 2.5 × 10^4 cells/well in KG2 medium, and incubated for 24 hours. The supernatant was aspirated, the medium was exchanged with KB2 medium containing 0, 25, 50, 100 and 200 µM botryococcene, and culturing was continued for 24 hours, after which the cells were washed with PBS and the medium was replaced with HBSS. The cells were then irradiated with UVB (280 to 320 nm, 20 mJ/cm^2) and cultured for 24 hours in fresh KB2 medium. After culturing, the supernatant (K-CM) was collected. NHDF cells were seeded on a 96-well plate at a density of 2.0 × 10^4 cells/well in DMEM medium, and incubated for 24 hours. […] The cells were then dissolved in 50 µL of PBS containing 0.5% Triton^R X-100, and the protein level was quantified with a BCA Protein Assay Kit (product of Thermo Fisher Scientific), calculating the type I collagen and MMP-1 production per unit protein.

[8] = system: MMP-1; experiment: MMP-1 production by NHDF cells treated with supernatant (K-CM) of UVB-irradiated NHEK cells (ELISA, per unit protein)
Protocol: as §1, §3, §4

[9] = botryococcene 200 µM, UVB 20 mJ/cm^2
[10] = botryococcene 25 to 100 µM, UVB 20 mJ/cm^2
[11] = NHDF cells with K-CM of UVB-irradiated NHEK cells pretreated with botryococcene 200 µM
[12] = NHDF cells with K-CM of UVB-irradiated NHEK cells pretreated with botryococcene 25 to 100 µM

Q: What does the source list for `C=C[C@@](C)(/C=C/[C@H](C)CC[C@H](C)C(=C)CC[C@H](C)C(=C)C)CC[C@H](C)C(=C)CC[C@H](C)C(=C)C` [botryococcene]?
A: cell viability ([1]; botryococcene 0 to 200 µM): No change in cell viability was observed; cell viability ([1]; botryococcene 400 µM): a notable reduction was observed; intracellular ROS concentration ([2]; then 200 µM H2O2 treatment for 1 hour): decrease in a concentration-dependent manner; intracellular ROS concentration ([2]; without H2O2 treatment): decrease in a concentration-dependent manner; reduction in cell viability by H2O2 treatment [3]: restored by addition of botryococcene, in a concentration-dependent manner; Induction of IL-1α production [4, 9]: not inhibited; IL-1α production induced by UVB irradiation [4, 10]: inhibited all of the IL-1α and PGE2 production induced by UVB irradiation in a concentration-dependent manner up to 100 µM; amount of IL-1α produced ([4]; non-UVB-irradiated conditions, botryococcene up to 100 µM): reduced by botryococcene in a concentration-dependent manner up to 100 µM for IL-1α; Induction of PGE2 production [5, 9]: not inhibited; PGE2 production induced by UVB irradiation [5, 10]: inhibited all of the IL-1α and PGE2 production induced by UVB irradiation in a concentration-dependent manner up to 100 µM; amount of PGE2 produced ([5]; non-UVB-irradiated conditions, botryococcene up to 50 µM): reduced by botryococcene in a concentration-dependent manner; effect of inhibiting fluorescent bead phagocytosis ([6]; botryococcene 200 µM): less prominent than with 50 µM or 100 µM; fluorescent bead phagocytosis by UVB irradiation ([6]; botryococcene 25 to 100 µM): inhibited fluorescent bead phagocytosis by UVB irradiation in a concentration-dependent manner up to 100 µM; inhibiting effect on reduction in collagen production [7, 11]: less prominent than with 50 µM or 100 µM; reduction in collagen production [7, 12]: inhibited the reduction in collagen production and acceleration of MMP-1 production in a concentration-dependent manner up to 100 µM; inhibiting effect on acceleration of MMP-1 production [8, 11]: less prominent than with 50 µM or 100 µM; acceleration of MMP-1 production [8, 12]: inhibited the reduction in collagen production and acceleration of MMP-1 production in a concentration-dependent manner up to 100 µM
